# Assay results reported in PMC9536471 (Biochemistry, 2022).
# Values joined by “and” are separate entries in the source; they are usually repeats but may differ in a detail not shown here. Equal values may be shown once. Read-outs that look alike come from different tables or passages of the source.
# T1: HsHGPRT (Homo sapiens, UniProt P00492)
# T1 sequence (P00492 1-218): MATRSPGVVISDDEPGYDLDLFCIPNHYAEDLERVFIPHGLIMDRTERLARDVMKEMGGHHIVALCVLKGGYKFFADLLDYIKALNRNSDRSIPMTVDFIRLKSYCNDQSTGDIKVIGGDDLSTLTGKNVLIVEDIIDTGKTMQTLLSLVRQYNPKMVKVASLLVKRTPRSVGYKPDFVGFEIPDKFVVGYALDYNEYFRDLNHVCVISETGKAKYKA
# T2: PfHGXPRT (Plasmodium falciparum, UniProt P20035)
# T2 sequence (P20035 1-231): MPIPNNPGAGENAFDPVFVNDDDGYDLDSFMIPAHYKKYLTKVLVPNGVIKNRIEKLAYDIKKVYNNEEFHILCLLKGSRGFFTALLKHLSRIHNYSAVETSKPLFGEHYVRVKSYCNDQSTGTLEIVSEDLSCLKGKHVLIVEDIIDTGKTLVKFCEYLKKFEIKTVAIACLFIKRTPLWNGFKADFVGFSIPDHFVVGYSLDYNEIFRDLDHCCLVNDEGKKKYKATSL
# T3: T. cruzi HGPRT (Trypanosoma cruzi, UniProt Q4DGA3)
# T3 sequence (Q4DGA3 1-221): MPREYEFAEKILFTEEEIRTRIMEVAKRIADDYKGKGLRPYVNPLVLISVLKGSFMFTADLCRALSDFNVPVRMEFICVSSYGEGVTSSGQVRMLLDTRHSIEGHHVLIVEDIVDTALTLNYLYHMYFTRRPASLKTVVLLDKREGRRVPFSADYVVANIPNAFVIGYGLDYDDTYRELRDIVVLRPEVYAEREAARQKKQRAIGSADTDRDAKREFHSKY
# T4: TcA (Trypanosoma cruzi, UniProt Q4DRC4)
# T4 sequence (Q4DRC4 1-241): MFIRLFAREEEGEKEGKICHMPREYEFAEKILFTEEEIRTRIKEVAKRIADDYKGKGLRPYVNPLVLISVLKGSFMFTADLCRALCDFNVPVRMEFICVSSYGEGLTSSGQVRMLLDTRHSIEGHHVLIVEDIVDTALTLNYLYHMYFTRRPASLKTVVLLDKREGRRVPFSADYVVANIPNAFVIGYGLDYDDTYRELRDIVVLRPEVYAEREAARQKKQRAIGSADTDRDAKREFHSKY
# T5: TcC (Trypanosoma cruzi, UniProt Q4DGA3)
# T5 sequence (Q4DGA3 1-221): T3 sequence (Q4DGA3 1-221)
# B1: TcA (Trypanosoma cruzi strain CL Brener) (protein)
# chain: T4 sequence (Q4DRC4 1-241)
# B2: TcC (Trypanosoma cruzi strain CL Brener) (protein)
# chain: T3 sequence (Q4DGA3 1-221)
# What was measured:
# HsHGPRT = biological target: T1, HsHGPRT; experiment: Inhibition analysis of HsHGPRT, IMPDH-coupled assay; type: biochemical
# PfHGXPRT = biological target: T2, PfHGXPRT; experiment: Inhibition analysis of PfHGXPRT, IMPDH-coupled assay; type: biochemical
# T. cruzi HGPRT [1] = biological target: T3, T. cruzi HGPRT; experiment: Screening of T. cruzi HGPRT inhibitors; type: biochemical
# T. cruzi HGPRT [2] = experiment: Screening of T. cruzi HGPRT inhibitors; type: biochemical, Trypanosoma cruzi; settings: selectivity index: Ki of HsHGPRT divided by appKi of T. cruzi HGPRT
# TcA = biological target: T4, TcA; settings: cited from earlier work
# TcC [3] = biological target: T5, TcC; experiment: Isothermal titration calorimetry; type: binding
# TcC [4] = biological target: T5, TcC; experiment: Product inhibition studies of TcC; type: biochemical
# [5] = substrate: Nc1nc2nc[nH]c2c(=O)[nH]1; experiment: Steady-state kinetics of TcA, biosynthetic; type: biochemical, Trypanosoma cruzi; settings: other: biosynthetic reaction, pH 8.3
# [6] = substrate: O=c1[nH]cnc2nc[nH]c12; experiment: purified protein, by the assay type; settings: other: biosynthetic reaction, pH 8.3
# [7] = substrate: Oc1ncnc2[nH]ncc12; experiment: Steady-state kinetics of TcC, biosynthetic; type: biochemical, Trypanosoma cruzi; settings: other: biosynthetic reaction, pH 8.3
# [8] = substrate: Nc1nc2nc[nH]c2c(=O)[nH]1; experiment: Steady-state kinetics of TcC, biosynthetic; type: biochemical, Trypanosoma cruzi; settings: other: biosynthetic reaction, pH 8.3
# [9] = HPP-MP biosynthesis, fixed PRPP (1 mM), Lineweaver–Burk plots
# [10] = GMP biosynthesis, variable PRPP (20–215 μM), fixed Gua (70 μM)
# [11] = IMP biosynthesis, variable PRPP (20–215 μM), fixed Hx (60 μM)
molecule,measurement,setting,value
CN(Cc1c[nH]c2c(=O)[nH]cnc12)[C@H](CO)CCP(=O)(O)O.N.N [Compound 4],Ki,HsHGPRT,4600 ± 70 nM
same,Ki,PfHGXPRT,108 ± 30 nM
same,Ki,T. cruzi HGPRT [1],1440 ± 30 nM
same,SI,T. cruzi HGPRT [2],3.2
"Oc1ncnc2[nH]ncc12 [HPP, 4-hydroxypyrazolo(3,4-d)pyrimidine, reference compound]",Km,TcA; [9],710 ± 130 µM
same,kcat,TcA; [9],"0.34 ± 0.03 ^c^, ^d s^–1"
"O=c1[nH]cnc2nc[nH]c12 [Hx, hypoxanthine]",binding to free TcC enzyme,TcC [3]; ligand concentrations 500- and 900-fold higher than Km,could not be detected
"O=P(O)(O)OC[C@H]1O[C@H](OP(=O)(O)OP(=O)(O)O)[C@H](O)[C@@H]1O [PRPP, 5-phospho-α-D-ribose 1-diphosphate]",Km,TcA; [10],32 ± 5 µM
same,kcat,TcA; [10],32 ^b s^–1
same,Km,TcA; [11],31 ± 5 µM
same,kcat,TcA; [11],23 ^b s^–1
same,Kd,TcC [3],142000 ± 1000 nM
same,ΔG°,"TcC [3]; apo TcC, 25 °C, pH 8.0",–5247 ± 5 cal mol^–1
same,ΔH°,"TcC [3]; apo TcC, 25 °C, pH 8.0",5160 ± 450 cal mol^–1
same,–TΔS°,"TcC [3]; apo TcC, 25 °C, pH 8.0","–10,410 ± 450 cal mol^–1"
same,Ka,"TcC [3]; association constant, apo TcC, 25 °C, pH 8.0",7070 ± 60 M^–1
same,N,"TcC [3]; number of binding sites per monomer, apo TcC, 25 °C, pH 8.0",1.2 ± 0.2
same,Ki,TcC [4],800 ± 100 nM
B1,kcat/Km,[5],1 × 10^5 M^–1 s^–1 and 2.5 × 10^6 M^–1 s^–1
same,kcat/Km,[6]; TcA,1 × 10^5 M^–1 s^–1
B2,kcat/Km,[7],10^3 M^–1 s^–1
same,kcat/Km,[8],1 × 10^5 M^–1 s^–1 and 2.5 × 10^6 M^–1 s^–1
same,kcat/Km,[6]; TcC,1 × 10^5 M^–1 s^–1 and 2.1 × 10^6 M^–1 s^–1
